Experimental data from patent US8741836B2, “Polypeptides” (Novo Nordisk A/S, priority 2011, dated 2014).
Starred links: 1 amine or outer side, 2 acyl side, 3 side chain; linkers in the order of their positions; H or OH if unused. Positions of bridges follow the written chain, without caps; N, C: chain ends. Residues, ends and D or L forms follow the SMILES beside them. *: point of attachment. C20 diacid = O=C(O)CCCCCCCCCCCCCCCCCCC(=O)*; γGlu = O=C(O)[C@H](CCC(=O)[*:2])N[*:1]

assay: Assay (III) ThT fibrillation assay for physical stability; format: physicochemical; details: pH 4.0
Method in brief: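 Freshly prepared, pH-adjusted formulations with 1 μM ThT incubated at 37 °C under 960 rpm orbital shaking (1 mm), fluorescence (ex 444, em 485 nm) read every 20 min. […] Peptide content before and after measured by reverse-phase HPLC against pramlintide standard.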

Structure (SMILES)	ThT pH 4.0 lag time (physical stability in fibrillogenesis assay)
CC[C@H](C)[C@H](NC(=O)[C@@H]1CCCN1C(=O)CNC(=O)[C@H](Cc1ccccc1)NC(=O)[C@H](CCC(N)=O)NC(=O)[C@H](CCC(N)=O)NC(=O)[C@H](CO)NC(=O)[C@H](CO)NC(=O)[C@H](Cc1c[nH]cn1)NC(=O)[C@H](CCCNC(=N)N)NC(=O)[C@H](CC(C)C)NC(=O)[C@H](Cc1ccccc1)NC(=O)[C@H](CCC(=O)O)NC(=O)[C@H](C)NC(=O)[C@H](CC(C)C)NC(=O)[C@H](CCCNC(=N)N)NC(=O)[C@H](CCC(N)=O)NC(=O)[C@@H](NC(=O)[C@H](C)NC(=O)[C@@H]1CSSC[C@H](NC(=O)[C@H](CCC(=O)O)NC(=O)[C@H](CCCNC(=N)N)NC(=O)[C@H](CCC(=O)O)NC(=O)CC[C@H](NC(=O)CCCCCCCCCCCCCCCCCCC(=O)O)C(=O)O)C(=O)N[C@@H](CC(N)=O)C(=O)N[C@@H]([C@@H](C)O)C(=O)N[C@@H](C)C(=O)N[C@@H]([C@@H](C)O)C(=O)N1)[C@@H](C)O)C(=O)N[C@@H](CC(C)C)C(=O)N1CCC[C@H]1C(=O)N1CCC[C@H]1C(=O)N[C@H](C(=O)N[C@@H](CCC(N)=O)C(=O)N[C@H](C(=O)NCC(=O)N[C@@H](CO)C(=O)N[C@@H](CCC(N)=O)C(=O)N[C@H](C(=O)N1CCC[C@H]1C(N)=O)[C@@H](C)O)C(C)C)[C@@H](C)O [Example 164, N-alpha-[(S)-4-Carboxy-4-(19-carboxynonadecanoylamino)butyryl]-Glu-Arg-[Glu1,Glu14,Arg17,Gln21,Gln22,Gln31,Gln35,Pro37]-pramlintide] ({C20 diacid-γGlu}-ERECNTATCATQRLAEFLRHSSQQFGPILPPTQVGSQTP-NH2; disulfide 4-9 (inferred))	>45 h
CC[C@H](C)[C@H](NC(=O)[C@@H]1CCCN1C(=O)CNC(=O)[C@H](Cc1ccccc1)NC(=O)[C@H](CC(N)=O)NC(=O)[C@H](CC(N)=O)NC(=O)[C@H](CO)NC(=O)[C@H](CO)NC(=O)[C@H](Cc1c[nH]cn1)NC(=O)[C@H](Cc1cnc[nH]1)NC(=O)[C@H](CC(C)C)NC(=O)[C@H](Cc1ccccc1)NC(=O)[C@H](CCC(=O)O)NC(=O)[C@H](C)NC(=O)[C@H](CC(C)C)NC(=O)[C@H](CCCNC(=N)N)NC(=O)[C@H](CCC(N)=O)NC(=O)[C@@H](NC(=O)[C@H](C)NC(=O)[C@@H]1CSSC[C@H](NC(=O)[C@H](CCCCN)NC(=O)CC[C@H](NC(=O)CCCCCCCCCCCCCCCCCCC(=O)O)C(=O)O)C(=O)N[C@@H](CC(N)=O)C(=O)N[C@@H]([C@@H](C)O)C(=O)N[C@@H](C)C(=O)N[C@@H]([C@@H](C)O)C(=O)N1)[C@@H](C)O)C(=O)N[C@@H](CC(C)C)C(=O)N1CCC[C@H]1C(=O)N1CCC[C@H]1C(=O)N[C@H](C(=O)N[C@@H](CC(N)=O)C(=O)N[C@H](C(=O)NCC(=O)N[C@@H](CO)C(=O)N[C@@H](CC(N)=O)C(=O)N[C@H](C(=O)N1CCC[C@H]1C(N)=O)[C@@H](C)O)C(C)C)[C@@H](C)O [Example 52, N-alpha-[(S)-4-Carboxy-4-(19-carboxynonadecanoylamino)butyryl]-[Glu14,His17,Pro37]-pramlintide] ({C20 diacid-γGlu}-KCNTATCATQRLAEFLHHSSNNFGPILPPTNVGSNTP-NH2; disulfide 2-7)	>45 h
CC[C@H](C)[C@H](NC(=O)[C@@H]1CCCN1C(=O)CNC(=O)[C@H](Cc1ccccc1)NC(=O)[C@H](CC(N)=O)NC(=O)[C@H](CC(N)=O)NC(=O)[C@H](CO)NC(=O)[C@H](CO)NC(=O)[C@H](Cc1c[nH]cn1)NC(=O)[C@H](CCCNC(=N)N)NC(=O)[C@H](CC(C)C)NC(=O)[C@H](Cc1ccccc1)NC(=O)[C@H](CCC(=O)O)NC(=O)[C@H](C)NC(=O)[C@H](CC(C)C)NC(=O)[C@H](CCCNC(=N)N)NC(=O)[C@H](CCC(N)=O)NC(=O)[C@@H](NC(=O)[C@H](C)NC(=O)[C@@H]1CSSC[C@H](NC(=O)[C@H](CCCCN)NC(=O)CC[C@H](NC(=O)CCCCCCCCCCCCCCCCCCC(=O)O)C(=O)O)C(=O)N[C@@H](CC(N)=O)C(=O)N[C@@H]([C@@H](C)O)C(=O)N[C@@H](C)C(=O)N[C@@H]([C@@H](C)O)C(=O)N1)[C@@H](C)O)C(=O)N[C@@H](CC(C)C)C(=O)N1CCC[C@H]1C(=O)N1CCC[C@H]1C(=O)N[C@H](C(=O)N[C@@H](CC(N)=O)C(=O)N[C@H](C(=O)NCC(=O)N[C@@H](CO)C(=O)N[C@@H](Cc1cnc[nH]1)C(=O)N[C@H](C(=O)N[C@@H](Cc1ccc(O)cc1)C(N)=O)[C@@H](C)O)C(C)C)[C@@H](C)O [Example 57, N-alpha-[(S)-4-Carboxy-4-(19-carboxynonadecanoylamino)butyryl]-[Glu14,Arg17,His35]-pramlintide] ({C20 diacid-γGlu}-KCNTATCATQRLAEFLRHSSNNFGPILPPTNVGSHTY-NH2; disulfide 2-7)	>45 h

same assay, conditions: pH 4.0, ThT fibrillation assay

Structure (SMILES)	ThT pH 4.0 lag time
CC[C@H](C)[C@H](NC(=O)[C@@H]1CCCN1C(=O)CNC(=O)[C@H](Cc1ccccc1)NC(=O)[C@H](CC(N)=O)NC(=O)[C@H](CC(N)=O)NC(=O)[C@H](CO)NC(=O)[C@H](CO)NC(=O)[C@H](Cc1c[nH]cn1)NC(=O)[C@H](Cc1c[nH]cn1)NC(=O)[C@H](CC(C)C)NC(=O)[C@H](Cc1ccccc1)NC(=O)[C@H](CCC(=O)O)NC(=O)[C@H](C)NC(=O)[C@H](CC(C)C)NC(=O)[C@H](CCCNC(=N)N)NC(=O)[C@H](CCC(N)=O)NC(=O)[C@@H](NC(=O)[C@H](C)NC(=O)[C@@H]1CSSC[C@H](NC(=O)[C@H](Cc2c[nH]cn2)NC(=O)CC[C@H](NC(=O)CCCCCCCCCCCCCCCCCCC(=O)O)C(=O)O)C(=O)N[C@@H](CC(N)=O)C(=O)N[C@@H]([C@@H](C)O)C(=O)N[C@@H](C)C(=O)N[C@@H]([C@@H](C)O)C(=O)N1)[C@@H](C)O)C(=O)N[C@@H](CC(C)C)C(=O)N1CCC[C@H]1C(=O)N1CCC[C@H]1C(=O)N[C@H](C(=O)N[C@@H](CC(N)=O)C(=O)N[C@H](C(=O)NCC(=O)N[C@@H](CO)C(=O)N[C@@H](Cc1c[nH]cn1)C(=O)N[C@H](C(=O)N[C@@H](Cc1ccc(O)cc1)C(N)=O)[C@@H](C)O)C(C)C)[C@@H](C)O [Example 76, N-alpha-[(S)-4-Carboxy-4-(19-carboxynonadecanoylamino)butyryl]-[His1,Glu14,His17,His35]-pramlintide] ({C20 diacid-γGlu}-HCNTATCATQRLAEFLHHSSNNFGPILPPTNVGSHTY-NH2; disulfide 2-7)	>45 h
CC[C@H](C)[C@H](NC(=O)[C@@H]1CCCN1C(=O)CNC(=O)[C@H](Cc1ccccc1)NC(=O)[C@H](CC(N)=O)NC(=O)[C@H](CO)NC(=O)[C@H](CO)NC(=O)[C@H](CO)NC(=O)[C@H](Cc1c[nH]cn1)NC(=O)[C@H](CCCNC(=N)N)NC(=O)[C@H](CC(C)C)NC(=O)[C@H](Cc1ccccc1)NC(=O)[C@H](CCC(=O)O)NC(=O)[C@H](C)NC(=O)[C@H](CC(C)C)NC(=O)[C@H](CCCNC(=N)N)NC(=O)[C@H](CCC(N)=O)NC(=O)[C@@H](NC(=O)[C@H](C)NC(=O)[C@@H]1CSSC[C@H](NC(=O)[C@H](Cc2c[nH]cn2)NC(=O)CC[C@H](NC(=O)CCCCCCCCCCCCCCCCCCC(=O)O)C(=O)O)C(=O)N[C@@H](CC(N)=O)C(=O)N[C@@H]([C@@H](C)O)C(=O)N[C@@H](C)C(=O)N[C@@H]([C@@H](C)O)C(=O)N1)[C@@H](C)O)C(=O)N[C@@H](CC(C)C)C(=O)N[C@@H](CO)C(=O)N[C@@H](CO)C(=O)N[C@H](C(=O)N[C@@H](CC(N)=O)C(=O)N[C@H](C(=O)NCC(=O)N[C@@H](CO)C(=O)N[C@@H](Cc1c[nH]cn1)C(=O)N[C@H](C(=O)N[C@@H](Cc1ccc(O)cc1)C(N)=O)[C@@H](C)O)C(C)C)[C@@H](C)O [Example 111, N-alpha-[(S)-4-Carboxy-4-(19-carboxynonadecanoylamino)butyryl]-[His1,Glu14,Arg17,Ser21,Ser28,Ser29,His35]-pramlintide] ({C20 diacid-γGlu}-HCNTATCATQRLAEFLRHSSSNFGPILSSTNVGSHTY-NH2; disulfide 2-7)	>45 h
CC[C@H](C)[C@H](NC(=O)[C@@H]1CCCN1C(=O)CNC(=O)[C@H](Cc1ccccc1)NC(=O)[C@H](CC(N)=O)NC(=O)[C@H](CC(N)=O)NC(=O)[C@H](CO)NC(=O)[C@H](CO)NC(=O)[C@H](Cc1c[nH]cn1)NC(=O)[C@H](Cc1c[nH]cn1)NC(=O)[C@H](CC(C)C)NC(=O)[C@H](Cc1ccccc1)NC(=O)[C@H](CCC(=O)O)NC(=O)[C@H](C)NC(=O)[C@H](CC(C)C)NC(=O)[C@H](CCCNC(=N)N)NC(=O)[C@H](CCC(N)=O)NC(=O)[C@@H](NC(=O)[C@H](C)NC(=O)[C@@H]1CSSC[C@H](NC(=O)[C@H](CCCCN)NC(=O)CC[C@H](NC(=O)CCCCCCCCCCCCCCCCCCC(=O)O)C(=O)O)C(=O)N[C@@H](CC(N)=O)C(=O)N[C@@H]([C@@H](C)O)C(=O)N[C@@H](C)C(=O)N[C@@H]([C@@H](C)O)C(=O)N1)[C@@H](C)O)C(=O)N[C@@H](CC(C)C)C(=O)N1CCC[C@H]1C(=O)N1CCC[C@H]1C(=O)N[C@H](C(=O)N[C@@H](CC(N)=O)C(=O)N[C@H](C(=O)NCC(=O)N[C@@H](Cc1c[nH]cn1)C(=O)N[C@@H](CC(N)=O)C(=O)N[C@H](C(=O)N[C@@H](Cc1ccc(O)cc1)C(N)=O)[C@@H](C)O)C(C)C)[C@@H](C)O [Example 115, N-alpha-[(S)-4-Carboxy-4-(19-carboxynonadecanoylamino)butyryl]-[Glu14,His17,His34]-pramlintide] ({C20 diacid-γGlu}-KCNTATCATQRLAEFLHHSSNNFGPILPPTNVGHNTY-NH2; disulfide 2-7 (inferred))	>45 h
CC[C@H](C)[C@H](NC(=O)[C@@H]1CCCN1C(=O)CNC(=O)[C@H](Cc1ccccc1)NC(=O)[C@H](CCC(N)=O)NC(=O)[C@H](CCC(N)=O)NC(=O)[C@H](CO)NC(=O)[C@H](CO)NC(=O)[C@H](Cc1c[nH]cn1)NC(=O)[C@H](CCCNC(=N)N)NC(=O)[C@H](CC(C)C)NC(=O)[C@H](Cc1ccccc1)NC(=O)[C@H](CCC(=O)O)NC(=O)[C@H](C)NC(=O)[C@H](CC(C)C)NC(=O)[C@H](CCCNC(=N)N)NC(=O)[C@H](CCC(N)=O)NC(=O)[C@@H](NC(=O)[C@H](C)NC(=O)[C@@H]1CSSC[C@H](NC(=O)[C@H](CCC(=O)O)NC(=O)[C@H](CCCNC(=N)N)NC(=O)[C@H](CCC(=O)O)NC(=O)CC[C@H](NC(=O)CCCCCCCCCCCCCCCCCCC(=O)O)C(=O)O)C(=O)N[C@@H](CC(N)=O)C(=O)N[C@@H]([C@@H](C)O)C(=O)N[C@@H](C)C(=O)N[C@@H]([C@@H](C)O)C(=O)N1)[C@@H](C)O)C(=O)N[C@@H](CC(C)C)C(=O)N1CCC[C@H]1C(=O)N1CCC[C@H]1C(=O)N[C@H](C(=O)N[C@@H](CCC(N)=O)C(=O)N[C@H](C(=O)NCC(=O)N[C@@H](CO)C(=O)N[C@@H](CCC(N)=O)C(=O)N[C@H](C(=O)N1CCC[C@H]1C(N)=O)[C@@H](C)O)C(C)C)[C@@H](C)O [Example 164, N-alpha-[(S)-4-Carboxy-4-(19-carboxynonadecanoylamino)butyryl]-Glu-Arg-[Glu1,Glu14,Arg17,Gln21,Gln22,Gln31,Gln35,Pro37]-pramlintide] ({C20 diacid-γGlu}-ERECNTATCATQRLAEFLRHSSQQFGPILPPTQVGSQTP-NH2; disulfide 4-9 (inferred))	>45 h
